Experimental data taken from patent US8637516B2 (IRM LLC, priority 2010, dated 2014).

Legend:
parental Ba/F3 cells = assay: Proliferation of parental (untransformed, wt) Ba/F3 cells (BAF3/WT); format: cell-based, murine; conditions: Mus musculus, Table 1, parental cells with IL3, 48 hours
Method: (§1) Compound dilutions were made in 384 well plates.
Compounds were tested for their ability to inhibit the proliferation of wt Ba/F3 cells and Ba/F3 cells transformed with constitutively expressed luciferase reporter and BCR-ABL or Tel-FMS or other Tel fusion kinases (EGFR, JAK2, ALK, BMX, FGFR3, FGFR4, FGR2, FLT1, FLT3, IGF1R, INSR, KDR, KIT, LCK, LYN, MEK, MET, PDGFRα, PDGFRβ, RET, RON, ROS, SRC, SYK, TIE and TYRO) or BRafV600E. Parental Ba/F3 cells were maintained in media containing recombinant mouse IL3 and the kinase transformed Ba/F3 cells were maintained in media without IL-3. 7.5 nl of compounds were spotted to each well of 1536-well assay plates by Liquid handling System Echo 555 (Labcyte). 700 cells were then plated into each well of the assay plates in 7 uL culture media per well and compounds were tested at 0.17 nM to 10 uM in 3-fold serial dilutions. The cells were then incubated for 48 hours at 37° C. 3 uL of Bright-Glo® (Promega) was added to each well and the plates were read using ViewLux (PerkinElmer).
(§2) The emited luminiscence is quantified using ViewLux (PerkinElmer).

[1] = molecular target: T1, Ba/F3 cells transformed with human Tel-TrkA (Homo sapiens, UniProt P04629); assay: Proliferation of Ba/F3 cells transformed with human Tel-TrkA (Ba/F3 Tel-TrkA); format: cell-based; conditions: Table 1; 48 hours, Bright Glo luminescence; read-out: Ba/F3 Tel-TrkA
T1 construct: expressed in transfected cells; host or cells: Ba/F3 murine hematopoietic progenitor cells (luciferase expressing); the other entry of the earlier key: ETV6 (P41212, Transcription factor ETV6)
T1 sequence (P04629 510-796 limits assumed): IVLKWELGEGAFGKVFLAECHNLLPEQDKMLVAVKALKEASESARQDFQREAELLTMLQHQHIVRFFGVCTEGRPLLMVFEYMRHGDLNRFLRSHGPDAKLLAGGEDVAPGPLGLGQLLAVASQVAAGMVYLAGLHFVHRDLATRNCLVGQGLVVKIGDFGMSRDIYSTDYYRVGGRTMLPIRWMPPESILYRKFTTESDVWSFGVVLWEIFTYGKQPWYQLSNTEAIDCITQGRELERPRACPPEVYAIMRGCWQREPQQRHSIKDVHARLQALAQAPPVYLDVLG
From the text: as §1, §2

Compound | IC50 [1] [nM] | IC50 (parental Ba/F3 cells) [nM]
O=C(NCCc1ccc(F)cc1)c1cnc2ccc(N3CCC[C@@H]3c3cccc(F)c3)nn12 [X-37] | 137 | > 10000
[2H]C1([2H])N(c2ccc3ncc(C(=O)OCC)n3n2)C([2H])(c2cccc(F)c2)C([2H])([2H])C1([2H])[2H] (stereo not drawn) [X-163] | 79 | > 10000
CC(=O)OC(C)(C)C(=O)Nc1cnc2ccc(N3CCC[C@@H]3c3cccc(F)c3)nn12 [X-188] | 46 | > 10000
NC(=O)c1cnc2ccc(N3C[C@@H](F)C[C@@H]3c3ccc(F)c(F)c3)nn12 [X-240] | 198 | > 10000
O=C(NC1CCS(=O)(=O)C1)c1cnc2ccc(N3CCC[C@@H]3c3cccc(F)c3)nn12 (stereo partly drawn) [X-88] | 53 | > 10000
CONC(=O)c1cnc2ccc(N3CCC[C@@H]3c3cccc(F)c3)nn12 [X-151] | 45 | > 10000
C[C@H](O)C(=O)N1CCC(NC(=O)c2cnc3ccc(N4CCC[C@@H]4c4cccc(F)c4)nn23)CC1 [X-34] | 76 | > 10000
Fc1cccc([C@H]2CC(F)(F)CN2c2ccc3ncc(Br)n3n2)c1 [X-245, (R)-3-bromo-6-(4,4-difluoro-2-(3-fluorophenyl)pyrrolidin-1-yl)imidazo[1,2-b]pyridazine] | 44 | > 10000
CCNS(=O)(=O)c1cnc2ccc(N3CCC[C@@H]3c3cccc(F)c3)nn12 [X-237, (R)-N-ethyl-6-(2-(3-fluorophenyl)pyrrolidin-1-yl)imidazo[1,2-b]pyridazine-3-sulfonamide] | 3320 | > 10000
NC(=O)c1cnc2ccc(N3CCC[C@@H]3c3cccc(F)c3)nn12 [X-6] | 51 | > 10000
CC(=O)NCC(=O)Nc1cnc2ccc(N3CCC[C@H]3c3cccc(F)c3)nn12 [X-201] | 392 | > 10000
O=C(Nc1cnc2ccc(N3CC(F)(F)C[C@@H]3c3cccc(F)c3)nn12)Oc1ccccc1 [X-238] | 445 | > 10000
CS(=O)(=O)N1CC[C@@H](NC(=O)c2cnc3ccc(N4CCC[C@@H]4c4cccc(F)c4)nn23)C1 [X-70] | 293 | > 10000
CC(C)(C)[C@@H](CO)NC(=O)c1cnc2ccc(N3CCC[C@@H]3c3cccc(F)c3)nn12 [X-103] | 379 | > 10000
CC(C)C[C@H](CO)NC(=O)c1cnc2ccc(N3CCC[C@@H]3c3cccc(F)c3)nn12 [X-107] | 40 | > 10000
CNC(=O)c1cnc2ccc(N3CCC[C@@H]3c3cccc(F)c3)nn12 [X-43] | 46 | > 10000

Compound | IC50 [1] [nM] | IC50 (parental Ba/F3 cells) [nM]
CCOC(=O)N1CCC(NC(=O)c2cnc3ccc(N4CCC[C@@H]4c4cccc(F)c4)nn23)CC1 [X-50] | 40 | > 10000
CCn1nccc1NC(=O)c1cnc2ccc(N3CCC[C@@H]3c3cccc(F)c3)nn12 [X-77] | 548 | > 10000
CC(C)(C)OC(=O)Nc1cnc2ccc(N3CCC[C@@H]3c3cccc(F)c3)nn12 [X-233] | 379 | > 10000
COCCNC(=O)c1cnc2ccc(N3CCC[C@@H]3c3cccc(F)c3)nn12 [X-51] | 67 | > 10000
O=C(NCCO)c1cnc2ccc(N3CCC[C@@H]3c3cccc(F)c3)nn12 [X-79] | 61 | > 10000
CC(=O)OCC(=O)N1CCC(NC(=O)c2cnc3ccc(N4CCC[C@@H]4c4cccc(F)c4)nn23)CC1 [X-73, (R)-2-(4-(6-(2-(3-fluorophenyl)pyrrolidin-1-yl)imidazo[1,2-b]pyridazine-3-carboxamido)piperidin-1-yl)-2-oxoethyl acetate] | 109 | > 10000
CC(C)(C)OC(=O)N1CC(NC(=O)c2cnc3ccc(N4CCC[C@@H]4c4cccc(F)c4)nn23)C1 [X-61] | 144 | > 10000
O=C(NC(CO)(CO)CO)c1cnc2ccc(N3CCC[C@@H]3c3cccc(F)c3)nn12 [X-101] | 452 | > 10000
CC(=O)N1CC[C@@H](NC(=O)c2cnc3ccc(N4CCC[C@@H]4c4cccc(F)c4)nn23)C1 [X-66] | 737 | > 10000
CCN(CC)CCCNC(=O)c1cnc2ccc(N3CCC[C@H]3c3cccc(F)c3)nn12 [X-40] | 951 | > 10000
COC(=O)N[C@@H](C)CNC(=O)c1cnc2ccc(N3CCC[C@@H]3c3cccc(F)c3)nn12 [X-87] | 76 | > 10000
O=C(NC[C@H](O)CO)c1cnc2ccc(N3CCC[C@@H]3c3cccc(F)c3)nn12 [X-105] | 388 | > 10000
O=C(NOCC1CC1)c1cnc2ccc(N3CCC[C@@H]3c3cccc(F)c3)nn12 [X-143] | 45 | > 10000
O=C(NCC1CCC1)c1cnc2ccc(N3CCC[C@@H]3c3cccc(F)c3)nn12 [X-22] | 47 | > 10000
NS(=O)(=O)CCNC(=O)c1cnc2ccc(N3C[C@@H](F)CC3c3cccc(F)c3)nn12 (stereo partly drawn) [X-118] | 54 | > 10000
NC(=O)c1cnc2ccc(N3CCCC3c3cccc(F)c3)nn12 (stereo not drawn) [X-5, 6-(2-(3-fluorophenyl)pyrrolidin-1-yl)imidazo[1,2-b]pyridazine-3-carboxamide] | 117 | > 10000

Now those with a lower IC50 [1], led by results:

IC50 [1] [nM] | Compound | IC50 (parental Ba/F3 cells) [nM]
16 | CC(C)CNC(=O)c1cnc2ccc(N3CCC[C@@H]3c3cccc(F)c3)nn12 [X-94] | > 10000
36 | O=C(NC1CCSCC1)c1cnc2ccc(N3CCC[C@@H]3c3cccc(F)c3)nn12 [X-59] | > 10000
2 | CS(=O)(=O)N1CCC(NC(=O)c2cnc3ccc(N4C[C@@H](F)C[C@@H]4c4cccc(F)c4)nn23)CC1 [X-121] | 5140
20 | CC(C)(CO)NC(=O)c1cnc2ccc(N3CCC[C@@H]3c3cccc(F)c3)nn12 [X-83] | > 10000
24 | Cn1cccc1/C=C/C(=O)c1cnc2ccc(N3CCC[C@@H]3c3cccc(F)c3)nn12 [X-130] | > 10000
11 | O=C(NC1CC1)c1cnc2ccc(N3CCC[C@@H]3c3cccc(F)c3)nn12 [X-44] | > 10000
27 | NC(=O)c1cnc2ccc(N3CCCCC3c3cccc(F)c3)nn12 (stereo not drawn) [X-18] | > 10000
38 | CC(=O)OCC(=O)Nc1cnc2ccc(N3CCC[C@@H]3c3cccc(F)c3)nn12 [X-172, (R)-2-(6-(2-(3-fluorophenyl)pyrrolidin-1-yl)imidazo[1,2-b]pyridazin-3-ylamino)-2-oxoethyl acetate] | > 10000
30 | O=C(NCCCCO)c1cnc2ccc(N3CCC[C@@H]3c3cccc(F)c3)nn12 [X-20] | > 10000
34 | NC(=O)c1cnc2ccc(N3CC(F)(F)C[C@@H]3c3cccc(F)c3)nn12 [X-247, (R)-6-(4,4-difluoro-2-(3-fluorophenyl)pyrrolidin-1-yl)imidazo[1,2-b]pyridazine-3-carboxamide] | > 10000
37 | O=C(NCc1cccc(N2CCOCC2)n1)c1cnc2ccc(N3CCC[C@@H]3c3cccc(F)c3)nn12 [X-25] | > 8990
28 | COCCONC(=O)c1cnc2ccc(N3CCC[C@H]3c3cccc(F)c3)nn12 [X-148] | > 10000
31 | CC(C)[C@H](CO)NC(=O)c1cnc2ccc(N3CCC[C@@H]3c3cccc(F)c3)nn12 [X-102] | > 10000
31 | CS(=O)(=O)N1CC[C@H](NC(=O)c2cnc3ccc(N4CCC[C@@H]4c4cccc(F)c4)nn23)C1 [X-30] | > 10000
7 | CCNC(=O)c1cnc2ccc(N3CCC[C@@H]3c3cccc(F)c3)nn12 [X-55] | > 9620
23 | COCC(=O)Nc1cnc2ccc(N3CCC[C@@H]3c3cccc(F)c3)nn12 [X-200] | > 8830
18 | COC(=O)NC(=O)c1cnc2ccc(N3CC(F)(F)C[C@@H]3c3cccc(F)c3)nn12 [X-249] | > 10000
34 | O=C(NCCC(F)(F)F)c1cnc2ccc(N3CCC[C@@H]3c3cccc(F)c3)nn12 [X-76] | > 10000
27 | O=C(N[C@@H]1CCOC1=O)c1cnc2ccc(N3CCC[C@@H]3c3cccc(F)c3)nn12 [X-100] | > 10000
3 | O=C(N[C@@H]1c2ccccc2C[C@H]1O)c1cnc2ccc(N3CCC[C@@H]3c3cccc(F)c3)nn12 [X-106] | > 10000
5 | NC(=O)c1cnc2ccc(N3C[C@@H](F)C[C@@H]3c3cccc(F)c3)nn12 [X-7, 6-((2R,4S)-4-fluoro-2-(3-fluorophenyl)pyrrolidin-1-yl)imidazo[1,2-b]pyridazine-3-carboxamide] | 3560
28 | NCC(=O)Nc1cnc2ccc(N3CC(F)(F)C[C@@H]3c3cccc(F)c3)nn12 [X-204, (R)-2-amino-N-(6-(4,4-difluoro-2-(3-fluorophenyl)pyrrolidin-1-yl)imidazo[1,2-b]pyridazin-3-yl)acetamide] | > 10000
